In patent US9822110B2, “Sulfonamide derivative and pharmaceutical use thereof” (EA Pharma Co., Ltd., priority 2013, dated 2017) one finds IC50 data, which are given here for twelve molecules.

Where only a bound is given, the exact number is not on record here.

In the assay the target is T1, MAdCAM-1/α4β7 integrin (Homo sapiens, UniProt P13612+P26010).
T1 construct: a human B-cell line known to express α4β7 integrin; endogenous in cells; host or cells: RPMI-8866 (human B-cell line)
T1 sequence (P13612 34-1032): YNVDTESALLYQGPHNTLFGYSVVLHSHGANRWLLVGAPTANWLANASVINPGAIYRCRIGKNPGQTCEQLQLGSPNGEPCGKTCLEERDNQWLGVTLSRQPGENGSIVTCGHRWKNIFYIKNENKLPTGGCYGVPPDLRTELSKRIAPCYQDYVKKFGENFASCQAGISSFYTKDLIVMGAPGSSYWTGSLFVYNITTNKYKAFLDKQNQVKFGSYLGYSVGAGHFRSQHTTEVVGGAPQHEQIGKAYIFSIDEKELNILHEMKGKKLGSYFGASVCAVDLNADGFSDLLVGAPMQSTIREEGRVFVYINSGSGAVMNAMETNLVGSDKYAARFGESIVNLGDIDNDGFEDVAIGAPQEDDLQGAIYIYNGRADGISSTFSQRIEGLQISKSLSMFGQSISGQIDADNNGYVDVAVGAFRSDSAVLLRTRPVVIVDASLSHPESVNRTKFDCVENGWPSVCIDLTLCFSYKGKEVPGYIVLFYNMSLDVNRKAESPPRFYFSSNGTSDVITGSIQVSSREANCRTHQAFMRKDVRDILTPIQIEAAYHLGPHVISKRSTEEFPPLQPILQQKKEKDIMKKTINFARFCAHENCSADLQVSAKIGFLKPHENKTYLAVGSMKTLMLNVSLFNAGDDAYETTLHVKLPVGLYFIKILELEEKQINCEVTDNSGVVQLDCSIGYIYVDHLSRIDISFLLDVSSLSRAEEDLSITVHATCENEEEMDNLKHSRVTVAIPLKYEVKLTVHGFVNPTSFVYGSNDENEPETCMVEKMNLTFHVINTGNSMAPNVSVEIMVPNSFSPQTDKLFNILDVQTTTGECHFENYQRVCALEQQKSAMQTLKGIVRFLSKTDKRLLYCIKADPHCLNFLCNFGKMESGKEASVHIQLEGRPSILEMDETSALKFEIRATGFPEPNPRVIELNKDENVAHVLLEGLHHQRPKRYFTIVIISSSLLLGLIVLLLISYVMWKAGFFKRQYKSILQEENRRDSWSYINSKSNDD
T1 sequence (P26010 20-798): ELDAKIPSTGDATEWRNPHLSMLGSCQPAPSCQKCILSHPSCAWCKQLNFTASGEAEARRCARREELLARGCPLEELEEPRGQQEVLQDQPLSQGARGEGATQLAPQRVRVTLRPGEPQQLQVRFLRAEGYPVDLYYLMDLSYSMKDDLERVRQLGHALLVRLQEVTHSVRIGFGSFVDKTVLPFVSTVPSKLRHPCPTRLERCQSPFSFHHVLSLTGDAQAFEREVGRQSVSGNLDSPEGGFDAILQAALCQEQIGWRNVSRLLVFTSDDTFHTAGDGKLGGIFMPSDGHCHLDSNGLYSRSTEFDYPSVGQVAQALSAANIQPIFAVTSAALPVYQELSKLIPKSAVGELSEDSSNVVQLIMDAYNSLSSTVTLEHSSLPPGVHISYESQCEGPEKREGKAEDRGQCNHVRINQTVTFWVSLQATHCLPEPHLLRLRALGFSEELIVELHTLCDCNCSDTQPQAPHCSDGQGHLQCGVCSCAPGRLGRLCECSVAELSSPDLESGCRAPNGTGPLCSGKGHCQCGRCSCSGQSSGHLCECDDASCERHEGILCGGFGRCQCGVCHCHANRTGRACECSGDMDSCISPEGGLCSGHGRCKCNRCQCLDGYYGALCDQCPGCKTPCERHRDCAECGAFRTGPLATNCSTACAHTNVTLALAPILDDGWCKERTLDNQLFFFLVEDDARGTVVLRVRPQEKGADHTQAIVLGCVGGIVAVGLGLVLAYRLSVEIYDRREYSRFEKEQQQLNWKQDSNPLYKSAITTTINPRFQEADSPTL
The assay can be described thus: Evaluation test (1) for MAdCAM-1/α4β7 integrin binding inhibitory activity in the presence of serum (RPMI-8866 cell binding to MAdCAM-1/Fc). Particulars: RPMI-8866 cells, recombinant mouse MAdCAM-1/Fc, human serum at final concentration of 50%; read-out: α4β7 Serum Activity rank when α4β7 serum was added. The assay is classed as cell-based. On the procedure:
The selectivity was determined by dividing the IC50 value in the evaluation test for VCAM-1/α4β1 integrin binding inhibitory activity by the IC50 value in the evaluation test for MAdCAM-1/α4β7 integrin binding inhibitory activity. • (3) Evaluation Test (1) for MAdCAM-1/α4β7 Integrin Binding Inhibitory Activity in the Presence of Serum
The ability of test substances to inhibit the binding of RPMI-8866 cell line, a human B-cell line known to express α4β7 integrin, to MAdCAM-1 was examined.
A 96-well microtiter plate was coated overnight at 4° C. with a recombinant mouse MAdCAM-1/Fc (R&D systems) solution diluted with the buffer A (carbonate buffer, pH 9.6). After washing once with PBS, 150 μL/well of Block Ace (manufactured by Snow Brand Milk Products Co., Ltd.) was added, and it was incubated at room temperature for 2 hours. After removal, it was washed once with PBS.
100 μL of each of test substances and RPMI-8866 cells diluted with a binding buffer solution (DMEM containing 40 mM HEPES, 0.2% BSA, and 4 mM MnCl2) to various concentrations was added to the plate coated with MAdCAM-1/Fc, so that human serum was contained at a final concentration of 50%, and it was incubated at 30° C. for 15 minutes to 60 minutes. After the cells were bound to the wells, unbound cells were removed by washing with PBS. 50 μL/well of the buffer solution C (PBS containing 1.5% Triton X-100) was added to the plate to dissolve the bound RPMI-8866 cells. 30 μL of substrate buffer (Promega, CytoTox 96 Non-Radioactive Cytotoxicity Assay) was added to 30 μL of a cell lysate to allow a reaction for 30 minutes at room temperature in a dark place. 30 μL of stop solution (Promega, CytoTox 96 Non-Radioactive Cytotoxicity Assay) was added thereto to determine the absorbance at 490 nm using a plate reader. The absorbance was obtained herein by detecting the activity of lactate dehydrogenase (LDH) eluted in a supernatant of each well, that is, the absorbance is proportional to the number of RPMI-8866 cells remaining on the plate by being bound to MAdCAM-1. The test was duplicated, and the cell binding rate at various concentrations with the absorbance of the well containing no test substance being taken as 100% was determined, to calculate the concentration IC50 at which 50% of binding was inhibited.

Consider `C=CCn1cc(-c2ccc(S(=O)(=O)Nc3cc(F)c(C(=O)N[C@@H](Cc4ccc(-n5c(=O)c6ccncc6n(C)c5=O)cn4)C(=O)O)cc3F)cc2)cnc1=O` [Example 30, (2S)-2-[[4-[[4-(1-Allyl-2-oxo-pyrimidin-5-yl)phenyl]sulfonylamino]-2,5-difluoro-benzoyl]amino]-3-[5-(1-methyl-2,4-dioxo-pyrido[3,4-d]pyrimidin-3-yl)-2-pyridyl]propanoic acid], for which the IC50 fell in the range of 10 to 50 nM.

`Cn1c(=O)n(-c2ccc(C[C@H](NC(=O)c3cc(F)c(NS(=O)(=O)c4ccc(-c5ccnc(C6CCOCC6)c5)cn4)cc3F)C(=O)O)nc2)c(=O)c2ccncc21` [Example 34, (2S)-2-[[2,5-Difluoro-4-[[5-(2-tetrahydropyran-4-yl-4-pyridyl)-2-pyridyl]sulfonylamino]benzoyl]amino]-3-[5-(1-methyl-2,4-dioxo-pyrido[3,4-d]pyrimidin-3-yl)-2-pyridyl]propanoic acid]: the IC50 was in the range of 10 to 50 nM.

Consider `CN(C)CCc1ncc(-c2ccc(S(=O)(=O)Nc3cc(F)c(C(=O)N[C@@H](Cc4ccc(-n5c(=O)c6ccncc6n(C)c5=O)cn4)C(=O)O)cc3F)cc2)cn1` [Example 33, (2S)-2-[[4-[[4-[2-(2-Dimethylaminoethyl)pyrimidin-5-yl]phenyl]sulfonylamino]-2,5-difluoro-benzoyl]amino]-3-[5-(1-methyl-2,4-dioxo-pyrido[3,4-d]pyrimidin-3-yl)-2-pyridyl]propanoic acid], for which the IC50 was in the range of 10 to 50 nM.

For `COc1cc2c(=O)n(-c3ccc(C[C@H](NC(=O)c4cc(F)c(NS(=O)(=O)c5ccc(-c6cnc(COC(C)C)nc6)cc5)cc4F)C(=O)O)nc3)c(=O)n(C)c2cn1` [Example 41, (2S)-2-[[2,5-Difluoro-4-[[4-[2-(isopropoxymethyl)pyrimidin-5-yl]phenyl]sulfonylamino]benzoyl]amino]-3-[5-(6-methoxy-1-methyl-2,4-dioxo-pyrido[3,4-d]pyrimidin-3-yl)-2-pyridyl]propanoic acid], the IC50 was more than 200 nM.

Regarding `COCc1cn(-c2ccc(S(=O)(=O)Nc3cc(F)c(C(=O)N[C@@H](Cc4ccc(-n5c(=O)c6ccncc6n(C)c5=O)cn4)C(=O)O)cc3F)cc2)nn1` [Example 29, (2S)-2-[[2,5-Difluoro-4-[[4-[4-(methoxymethyl)triazol-1-yl]phenyl]sulfonylamino]benzoyl]amino]-3-[5-(1-methyl-2,4-dioxo-pyrido[3,4-d]pyrimidin-3-yl)-2-pyridyl]propanoic acid], the IC50 fell in the range of 50 to 200 nM.

Take `Cc1cn(-c2ccc(S(=O)(=O)Nc3cc(F)c(C(=O)N[C@@H](Cc4ccc(-c5c(C)n(C)c(=O)n(C)c5=O)cc4)C(=O)O)cc3F)nc2)nn1` [Example 37, (2S)-2-[[2,5-Difluoro-4-[[5-(4-methyltriazol-1-yl)-2-pyridyl]sulfonylamino]benzoyl]amino]-3-[4-(1,3,4-trimethyl-2,6-dioxo-pyrimidin-5-yl)phenyl]propanoic acid]: the IC50 was 10 to 50 nM.

As for `CNCc1ccc2c(c1)c(=O)n(-c1ccc(C[C@H](NC(=O)c3cc(F)c(NS(=O)(=O)c4ccc(-c5cnc(COC)nc5)cc4)cc3F)C(=O)O)cc1)c(=O)n2C` [Example 39, (2S)-2-[[2,5-Difluoro-4-[[4-[2-(methoxymethyl)pyrimidin-5-yl]phenyl]sulfonylamino]benzoyl]amino]-3-[4-[1-methyl-6-(methylaminomethyl)-2,4-dioxo-quinazolin-3-yl]phenyl]propanoic acid], the IC50 lay in the range of 10 to 50 nM.

Consider `Cc1c(-c2ccc(C[C@H](NC(=O)c3cc(F)c(NS(=O)(=O)c4ccc(-c5cnc(C6CCOCC6)nc5)cc4)cc3F)C(=O)O)nc2)c(=O)n(C)c(=O)n1C` [Example 89, (2S)-2-[[2,5-Difluoro-4-[[4-(2-tetrahydropyran-4-ylpyrimidin-5-yl)phenyl]sulfonylamino]benzoyl]amino]-3-[5-(1,3,4-trimethyl-2,6-dioxopyrimidin-5-yl)-2-pyridyl]propanoic acid], for which the IC50 was more than 200 nM.

On to `Cc1c(-c2ccc(C[C@H](NC(=O)c3cc(F)c(NS(=O)(=O)c4ccc(C5CCOCC5)cc4)cc3F)C(=O)O)cc2)c(=O)n(C)c(=O)n1C` [Example 87, (2S)-2-[[2,5-Difluoro-4-[(4-tetrahydropyran-4-ylphenyl)sulfonylamino]benzoyl]amino]-3-[4-(1,3,4-trimethyl-2,6-dioxopyrimidin-5-yl)phenyl]propanoic acid], for which the IC50 is more than 200 nM.

As to `CC(C)OCc1ncc(-c2ccc(S(=O)(=O)Nc3cc(F)c(C(=O)N[C@@H](Cc4ccc(-n5c(=O)c6ccncc6n(C)c5=O)cc4)C(=O)O)cc3F)cc2)cn1` [Example 85], the IC50 lay in the range of 10 to 50 nM.

With `COCc1ncc(-c2ccc(S(=O)(=O)Nc3cc(F)c(C(=O)N[C@@H](Cc4ccc(-n5c(=O)c6ccncc6n(C)c5=O)cn4)C(=O)O)cc3F)cc2)cn1` [Example 28, (2S)-2-[[2,5-Difluoro-4-[[4-[2-(methoxymethyl)pyrimidin-5-yl]phenyl]sulfonylamino]benzoyl]amino]-3-[5-(1-methyl-2,4-dioxo-pyrido[3,4-d]pyrimidin-3-yl)-2-pyridyl]propanoic acid], the IC50 was in the range of 10 to 50 nM.

As to `Cc1c(-c2ccc(C[C@H](NC(=O)c3cc(F)c(NS(=O)(=O)c4ccc(-c5cnc(C6CCOCC6)nc5)cc4)cc3F)C(=O)O)cc2)c(=O)n(C)c(=O)n1C` [Example 86, (2S)-2-[[2,5-Difluoro-4-[[4-(2-tetrahydropyran-4-ylpyrimidin-5-yl)phenyl]sulfonylamino]benzoyl]amino]-3-[4-(1,3,4-trimethyl-2,6-dioxopyrimidin-5-yl)phenyl]propanoic acid], the IC50 lay within 10 to 50 nM.
